This is an account of results in US20060234942A1, “Use of at least one $g(a)62 casein peptide with angiotensin i converting enzyme inhibiting activity for preparing medicines, food products and food complements” (priority 2002, published 2006).

Where “and” joins values, the source holds several entries; their conditions need not be identical. Identical values can stand only once. Residues, ends and D or L forms follow the SMILES beside them.

The target in assay [1] is angiotensin I converting enzyme (ACE) (Homo sapiens, UniProt P12821). As to the kind of experiment: biochemical. The settings on record: for IC50: IC50 (μM), synthetic peptides, tested in triplicate, deduced from linearized inhibition curve; for inhibition at 50 µM: primary amine or captopril concentration equal to 50 μM, chromatographic peaks collected from trypsic hydrolysate of αS2 casein, tested twice.
Chain of angiotensin I converting enzyme (ACE) (P12821 30-1306, species assumed): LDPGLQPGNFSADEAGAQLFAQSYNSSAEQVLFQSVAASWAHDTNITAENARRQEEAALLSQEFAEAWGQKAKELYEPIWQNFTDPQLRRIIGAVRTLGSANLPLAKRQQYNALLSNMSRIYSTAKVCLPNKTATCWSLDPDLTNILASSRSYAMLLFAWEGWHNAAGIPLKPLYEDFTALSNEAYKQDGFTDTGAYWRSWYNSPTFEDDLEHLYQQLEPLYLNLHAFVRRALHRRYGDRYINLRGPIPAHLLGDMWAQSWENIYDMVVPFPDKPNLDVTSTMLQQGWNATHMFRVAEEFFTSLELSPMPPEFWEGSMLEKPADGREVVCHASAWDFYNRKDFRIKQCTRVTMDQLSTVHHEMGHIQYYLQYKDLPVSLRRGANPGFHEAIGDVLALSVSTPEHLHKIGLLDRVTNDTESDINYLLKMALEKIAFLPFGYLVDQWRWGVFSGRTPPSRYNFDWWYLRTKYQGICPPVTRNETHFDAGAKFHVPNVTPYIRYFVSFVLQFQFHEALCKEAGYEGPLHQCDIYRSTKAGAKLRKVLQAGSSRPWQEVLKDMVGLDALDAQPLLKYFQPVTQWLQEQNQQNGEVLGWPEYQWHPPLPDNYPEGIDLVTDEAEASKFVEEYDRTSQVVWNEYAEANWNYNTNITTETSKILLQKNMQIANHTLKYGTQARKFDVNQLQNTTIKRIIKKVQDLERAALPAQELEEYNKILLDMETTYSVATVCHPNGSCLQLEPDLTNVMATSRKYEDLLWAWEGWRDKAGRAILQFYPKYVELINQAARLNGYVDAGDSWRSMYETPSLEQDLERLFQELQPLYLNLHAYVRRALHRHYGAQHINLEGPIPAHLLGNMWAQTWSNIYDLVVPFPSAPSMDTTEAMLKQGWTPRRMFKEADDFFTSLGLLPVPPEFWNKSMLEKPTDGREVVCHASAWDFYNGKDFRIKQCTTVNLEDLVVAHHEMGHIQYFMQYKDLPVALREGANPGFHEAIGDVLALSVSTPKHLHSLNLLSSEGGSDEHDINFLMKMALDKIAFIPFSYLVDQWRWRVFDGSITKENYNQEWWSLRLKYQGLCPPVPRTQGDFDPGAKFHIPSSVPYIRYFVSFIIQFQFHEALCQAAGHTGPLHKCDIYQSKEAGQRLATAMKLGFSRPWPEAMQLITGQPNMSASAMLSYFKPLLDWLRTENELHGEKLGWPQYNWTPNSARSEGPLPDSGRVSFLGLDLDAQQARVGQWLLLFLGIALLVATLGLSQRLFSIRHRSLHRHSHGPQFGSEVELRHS

Another assay deals with bacteria. Conditions: Zucht et al. (10); Recio and Visser (11); cited from earlier work.
Assay [2] concerns the target angiotensin I converting enzyme (Homo sapiens, UniProt P12821). The settings on record: Maeno et al. (13); read-out: IC50, quantity of peptide needed for inhibiting 50% of the enzyme activity; cited from earlier work.
For assay [3], the system named is spontaneously hypertensive rats. Conditions: 6 hours after oral administration of 1 mg synthesized peptide per kg, Maeno et al. (13); cited from earlier work.

Chain of angiotensin I converting enzyme (P12821 30-1306): as the sequence (P12821 30-1306, species assumed) above

In general, IC50 refers to the concentration that inhibits the measured activity by half. As for `CC[C@H](C)[C@H](NC(=O)[C@H](C)NC(=O)[C@H](CCSC)NC(=O)[C@@H](N)CC(N)=O)C(=O)N[C@@H](CC(N)=O)C(=O)N1CCC[C@H]1C(=O)O` [CNαS2-(f25-30), Asn-Met-Ala-Ile-Asn-Pro] (H-NMAINP-OH), the concentration for half-maximal inhibition (IC50) in assay [1] was under 60 µM.
As usually defined, the inhibition is the change of the read-out against control, counted positive when it falls. The low end stands for a weak effect, the high end for a strong effect. In assay [1], `CC[C@H](C)[C@H](NC(=O)[C@H](C)NC(=O)[C@H](CCSC)NC(=O)[C@@H](N)CC(N)=O)C(=O)N[C@@H](CC(N)=O)C(=O)N1CCC[C@H]1C(=O)N[C@@H](CO)C(=O)N[C@@H](CCCCN)C(=O)O` [CNαS2-(f25-32)] (H-NMAINPSK-OH; N-terminus and C-terminus assumed) gave a 50% inhibitory concentration (IC50) of under 60 µM and an inhibition at 50 µM of 42.5%.
`CC[C@H](C)[C@H](NC(=O)[C@H](CCC(=O)O)NC(=O)[C@H](CC(N)=O)NC(=O)[C@H](CC(C)C)NC(=O)[C@H](C)N)C(=O)N[C@@H](CC(N)=O)C(=O)N[C@@H](CCC(N)=O)C(=O)N[C@@H](Cc1ccccc1)C(=O)N[C@@H](Cc1ccc(O)cc1)C(=O)O` [CNαS2-(f81-89)] (H-ALNEINQFY-OH; N-terminus and C-terminus assumed): at 50 µM the inhibition in assay [1] was 32.2%.
On to `CC[C@H](C)[C@H](NC(=O)[C@H](CCC(=O)O)NC(=O)[C@H](CC(N)=O)NC(=O)[C@H](CC(C)C)NC(=O)[C@H](C)N)C(=O)N[C@@H](CC(N)=O)C(=O)N[C@@H](CCC(N)=O)C(=O)N[C@@H](Cc1ccccc1)C(=O)N[C@@H](Cc1ccc(O)cc1)C(=O)N[C@@H](CCC(N)=O)C(=O)N[C@@H](CCCCN)C(=O)O` [CNαS2-(f81-91)] (H-ALNEINQFYQK-OH; N-terminus and C-terminus assumed), for which the inhibition at 50 µM in assay [1] was found to be 27.2%.
In assay [1], `CC(C)C[C@H](NC(=O)[C@H](Cc1ccc(O)cc1)NC(=O)[C@H](CCC(N)=O)NC(=O)[C@@H]1CCCN1C(=O)[C@@H](N)Cc1ccccc1)C(=O)N[C@@H](CCC(N)=O)C(=O)N[C@@H](Cc1ccc(O)cc1)C(=O)O` [CNαS2-(f92-98), Phe-Pro-Gln-Tyr-Leu-Gln-Tyr] (H-FPQYLQY-OH; N-terminus and C-terminus assumed) displayed an IC50 of under 60 µM and an inhibition at 50 µM of over 70%.
Molecule `CC(C)C[C@H](NC(=O)[C@H](C)NC(=O)[C@@H](N)Cc1ccccc1)C(=O)N1CCC[C@H]1C(=O)O` [CNαS2-(f174-177), Phe-Ala-Leu-Pro] (H-FALP-OH) showed an IC50 in assay [1] of under 60 µM.
Regarding `CC(C)C[C@H](NC(=O)[C@H](C)NC(=O)[C@@H](N)Cc1ccccc1)C(=O)N1CCC[C@H]1C(=O)N[C@@H](CCC(N)=O)C(=O)N[C@@H](Cc1ccc(O)cc1)C(=O)O` [CNαS2-(f174-179), Phe-Ala-Leu-Pro-Gln-Tyr] (H-FALPQY-OH; N-terminus and C-terminus assumed), in assay [1], the IC50 is < 60 µM and 4.3 µM; the inhibition at 50 µM is over 70%.
In the case of `CC(C)C[C@H](NC(=O)[C@H](Cc1ccc(O)cc1)NC(=O)[C@H](CCC(N)=O)NC(=O)[C@@H]1CCCN1C(=O)[C@H](CC(C)C)NC(=O)[C@H](C)NC(=O)[C@@H](N)Cc1ccccc1)C(=O)N[C@@H](CCCCN)C(=O)O` [CNαS2-(f174-181)] (H-FALPQYLK-OH; N-terminus and C-terminus assumed), in assay [1], the concentration for half-maximal inhibition (IC50) was < 60 µM and 4.3 µM; the inhibition at 50 µM is over 70%.
In assay [1], `CC(C)[C@H](NC(=O)[C@@H](N)[C@@H](C)O)C(=O)N[C@@H](Cc1ccc(O)cc1)C(=O)O` [CNαS2-(f182-184), Thr-Val-Tyr] (H-Thr-Val-Tyr-OH; N-terminus and C-terminus assumed) gave an IC50 of under 60 µM and an inhibition at 50 µM of over 70%.
In the case of “CNαS2-(f164-179): αS2 casein peptide with antibacterial activity, Recio and Visser (11) (LKKISQRYQKFALPQY; UniProt P02663 179-194, looked up, fragment)”, in the assay with bacteria, the antibacterial activity entry is listed as “antibacterial activity”.
On to “CNαS2-(f165-203): αS2 casein peptide with antibacterial activity, Zucht et al. (10) (KKISQRYQKFALPQYLKTVYQHQKAMKPWIQPKTKVIPY; UniProt P02663 180-218, looked up, fragment)”, for which the antibacterial activity result in the assay with bacteria is “antibacterial activity”.
On to “CNαS2-(f189-193): αS2 casein peptide 189-193, ACE inhibitor reported by Maeno et al. (13) (AMKPW; UniProt P02663 204-208, looked up, fragment)”, for which the half-inhibitory concentration (IC50) in assay [2] was 580 µM. For the same molecule, the “antihypertensive effect in vivo” value in assay [3] is recorded as “do not present any significant antihypertensive effect”.
Consider “CNαS2-(f190-197): αS2 casein peptide 190-197, ACE inhibitor reported by Maeno et al. (13) (MKPWIQPK; UniProt P02663 205-212, looked up, fragment)”, for which the IC50 in assay [2] is 300 µM. In assay [3], the “antihypertensive effect in vivo” value is reported as “do not present any significant antihypertensive effect”.
With “CNαS2-(f198-202): αS2 casein peptide 198-202, ACE inhibitor reported by Maeno et al. (13) (TKVIP; UniProt P02663 213-217, looked up, fragment)”, the IC50 in assay [2] was 400 µM. In addition, in assay [3], the “antihypertensive effect in vivo” value was “do not present any significant antihypertensive effect”.
